# Measurements published in patent US7803816B2, “MCH receptor antagonists” (Hoffmann-La Roche Inc., priority 2005, dated 2010).
# Counter-ions that a name gives are not always drawn.
# Target: T1, recombinant human MCHR1-receptors (Homo sapiens, UniProt Q99705)
# T1 construct: expressed in transfected cells
# Assay: MCHR filter binding assay (competition binding)
# Settings: membranes from CHO-K1 cells expressing human MCHR1; 0.2 nM [Phe13,[125I]Tyr19]-MCH; read-out: IC50 (nM), in vitro activity (binding assay)
# Method: MCHR Filter Binding Assay
# Competition binding assays were performed using membranes from CHO-K1 cells stably expressing the recombinant human MCHR1-receptors. Binding reactions (90 μl, final volume) were carried out at rt by incubating 2.8 μg membranes with 0.2 nM [Phe^13,[^125I]Tyr^19]-MCH (PerkinElmer) in the absence or presence of various concentrations of competing ligands in binding buffer (50 mM HEPES, 2.5 mM CaCl2, 0.05 mM BSA, 1 mM phenanthroline, 0.03 mM Triton X-100). [Phe^13,[^125I]Tyr^19]-MCH was added 15 min following the addition of unlabeled competing ligands, and the reactions incubated for a 1 h period. The reactions were terminated by rapid filtration over pretreated 96-well filter plates (Millipore; MultiScreen 0.65 μm GFB filter plates). Filter Plates were treated for 12 h at 4° C. with a 0.5% polyvinylpyrrolidone solution containing 1% BSA and 0.1% Tween 20, and then washed with an ice-cold solution of 10 mM Tris, pH 7.5 (5×200 μl). The plates were drained following a 5 min incubation with binding buffer (200 μl) at rt. Following termination of the binding reactions, the filters were washed with ice-cold binding buffer (4×200 μl). The filter plates were air dried for 30 min, scintillation cocktail (60 μl) added to each well and radioactivity bound to the plates was determined using a Micro-beta plate reader (Wallace/PerkinElmer).
# T1 sequence (Q99705 whole entry): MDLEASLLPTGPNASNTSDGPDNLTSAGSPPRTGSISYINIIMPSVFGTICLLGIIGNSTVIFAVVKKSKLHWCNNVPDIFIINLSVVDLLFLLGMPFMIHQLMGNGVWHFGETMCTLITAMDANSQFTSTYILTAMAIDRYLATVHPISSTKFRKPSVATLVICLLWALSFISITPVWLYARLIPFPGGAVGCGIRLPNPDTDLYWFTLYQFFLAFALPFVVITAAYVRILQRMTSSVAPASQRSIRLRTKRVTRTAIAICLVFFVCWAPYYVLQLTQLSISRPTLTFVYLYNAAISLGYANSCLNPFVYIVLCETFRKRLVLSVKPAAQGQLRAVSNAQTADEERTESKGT
row,Molecule,IC50 [nM]
1,"CCC(=O)Nc1ccc2c(c1)C[C@H](CN1CCC(n3c(C(C)C)nc4cc(C)ccc43)C(OC)C1)C2 (stereo partly drawn) [Example 59, N-{(R)-2-[4-(2-Isopropyl-5-methyl-benzoimidazol-1-yl)-3-methoxy-piperidin-1-ylmethyl]-indan-5-yl}-propionamide]",< 20
2,"N-(2-{2-[4-(2,5-Dimethyl-benzoimidazol-1-yl)-piperidin-1-yl]-ethyl}-indan-5-yl)-isobutyramide [Example 58]",200 to 5000
3,"COc1ccc2c(c1)CC(CN1CC[C@H](n3c(C)nc4cc(C)ccc43)[C@@H](OC)C1)C2 (stereo partly drawn) [Example 92, 1-[(3S,4S)-3-Methoxy-1-(5-methoxy-indan-2-ylmethyl)-piperidin-4-yl]-2,5-dimethyl-1H-benzoimidazole; dihydrochloride]",20 to 200
4,"CO[C@@H]1CN(C[C@H]2Cc3ccc(F)cc3C2)CC[C@H]1n1c(C(C)(C)O)nc2cc(C)ccc21 [Example 108, 2-{1-[(3R,4R)-1-((S)-5-Fluoro-indan-2-ylmethyl)-3-methoxy-piperidin-4-yl]-5-methyl-1H-benzoimidazol-2-yl}-propan-2-ol]",20 to 200
5,"CO[C@@H]1CN(CC2Cc3ccncc3C2)CC[C@H]1n1c(C)nc2cc(C)ccc21 (stereo partly drawn) [Example 119, 1-[(3R,4R)-1-(6,7-Dihydro-5H-[2]pyrindin-6-ylmethyl)-3-methoxy-piperidin-4-yl]-2,5-dimethyl-1H-benzoimidazole]",20 to 200
6,"Cc1cc2nc(C(C)(C)O)n(C3CCN(CC4Cc5ccc(F)cc5C4)CC3)c2cc1F (stereo not shown) [Example 13, 2-{6-Fluoro-1-[1-(5-fluoro-indan-2-ylmethyl)-piperidin-4-yl]-5-methyl-1H-benzoimidazol-2-yl}-propan-2-ol]",< 20
7,"Cc1ccc2c(c1)nc(C(C)C)n2[C@@H]1CCN(CC2Cc3ccccc3C2)C[C@H]1O [Example 83, (3R,4R)-1-Indan-2-ylmethyl-4-(2-isopropyl-5-methyl-benzoimidazol-1-yl)-piperidin-3-ol]",200 to 5000
8,"Cc1ccc2c(c1)ncn2C1CCN(CC2Cc3cccc(Cl)c3C2)CC1 (stereo not shown) [Example 102, 1-[1-(4-Chloro-indan-2-ylmethyl)-piperidin-4-yl]-5-methyl-1H-benzoimidazole; compound with trifluoroacetic acid]",200 to 5000
9,"Cc1ccc2c(c1)nc(C(C)C)n2[C@@H]1CCN(C[C@@H]2Cc3ccc(NC(=O)C(C)C)cc3C2)C[C@H]1O [Example 86, N-{(R)-2-[(3R,4R)-3-Hydroxy-4-(2-isopropyl-5-methyl-benzoimidazol-1-yl)-piperidin-1-ylmethyl]-indan-5-yl}-isobutyramide]",20 to 200
10,"1-((3R,4R)-1-Indan-2-ylmethyl-3-methoxy-piperidin-4-yl)-2,5-dimethyl-1H-benzoimidazole; dihydrochloride [Example 55]",200 to 5000
11,"CCC(=O)Nc1ccc2c(c1)C[C@H](CN1CCC(n3c(C(C)(C)O)nc4cc(C)ccc43)CC1)C2 [Example 8, N-((R)-2-{4-[2-(1-Hydroxy-1-methyl-ethyl)-5-methyl-benzoimidazol-1-yl]-piperidin-1-ylmethyl}-indan-5-yl)-propionamide]",20 to 200
12,"CO[C@H]1CN(CC2Cc3cc(Cl)c(Cl)cc3C2)CC[C@@H]1n1c(C)nc2cc(C)ccc21 [Example 94, 1-[(3S,4S)-1-(5,6-Dichloro-indan-2-ylmethyl)-3-methoxy-piperidin-4-yl]-2,5-dimethyl-1H-benzoimidazole; dihydrochloride]",200 to 5000
13,"CCC(C)C(=O)Nc1ccc2c(c1)CC(CN1CCC(n3c(C)nc4cc(C)ccc43)CC1)C2 (stereo not shown) [Example 51, N-{2-[4-(2,5-Dimethyl-benzoimidazol-1-yl)-piperidin-1-ylmethyl]-indan-5-yl}-2-methyl-butyramide]",20 to 200
14,"COC1CN(C[C@@H]2Cc3ccc(NC(=O)C(C)C)cc3C2)CCC1n1c(C(C)C)nc2cc(C)ccc21 (stereo partly drawn) [Example 68, N-{(R)-2-[4-(2-Isopropyl-5-methyl-benzoimidazol-1-yl)-3-methoxy-piperidin-1-ylmethyl]-indan-5-yl}-isobutyramide]",< 20
15,"CO[C@H]1CN(CC2Cc3ccc(Cl)cc3C2)CC[C@@H]1n1c(C)nc2cc(C)ccc21 (stereo partly drawn) [Example 19, 1-[(3S,4S)-1-(5-Chloro-indan-2-ylmethyl)-3-methoxy-piperidin-4-yl]-2,5-dimethyl-1H-benzoimidazole; dihydrochloride]",20 to 200
16,"COC(=O)Nc1ccc2c(c1)C[C@H](CN1CC[C@H](n3c(C4CC4)nc4cc(C)ccc43)[C@@H](OC)C1)C2 [Example 71, {(R)-2-[(3S,4S)-4-(2-Cyclopropyl-5-methyl-benzoimidazol-1-yl)-3-methoxy-piperidin-1-ylmethyl]-indan-5-yl}-carbamic acid methyl ester]",< 20

row,Molecule,IC50 [nM]
1,"Cc1ccc2c(c1)nc(C(C)(C)O)n2C1CCN(C[C@@H]2Cc3ccc(Br)cc3C2)CC1 [Example 96, 2-{1-[1-((R)-5-Bromo-indan-2-ylmethyl)-piperidin-4-yl]-5-methyl-1H-benzoimidazol-2-yl}-propan-2-ol]",20 to 200
2,"Cc1ccc2c(c1)nc(C(C)(C)O)n2C1CCN(CC2Cc3cccc(Cl)c3C2)CC1 (stereo not shown) [Example 103, 2-{1-[1-(4-Chloro-indan-2-ylmethyl)-piperidin-4-yl]-5-methyl-1H-benzoimidazol-2-yl}-propan-2-ol; compound with trifluoroacetic acid]",20 to 200
3,"CO[C@@H]1CN(CC2Cc3ccc(C)cc3C2)CC[C@H]1n1c(C(C)(C)O)nc2cc(F)ccc21 (stereo partly drawn) [Example 110, 2-{5-Fluoro-1-[(3R,4R)-3-methoxy-1-(5-methyl-indan-2-ylmethyl)-piperidin-4-yl]-1H-benzoimidazol-2-yl}-propan-2-ol]",20 to 200
4,"CO[C@@H]1CN(C[C@@H]2Cc3ccc(NC(=O)C4CC4)cc3C2)CC[C@H]1n1c(C2CC2)nc2cc(C)ccc21 [Example 80, Cyclopropanecarboxylic acid {(R)-2-[(3R,4R)-4-(2-cyclopropyl-5-methyl-benzoimidazol-1-yl)-3-methoxy-piperidin-1-ylmethyl]-indan-5-yl}-amide]",200 to 5000
5,"CO[C@@H]1CN(C[C@@H]2Cc3ccc(Br)cc3C2)CC[C@H]1n1c(C)nc2cc(C)ccc21 [Example 87, 1-[(3R,4R)-1-((R)-5-Bromo-indan-2-ylmethyl)-3-methoxy-piperidin-4-yl]-2,5-dimethyl-1H-benzoimidazole; dihydrochloride]",20 to 200
6,"CO[C@@H]1CN(C[C@@H]2Cc3ccc(NC(=O)C(C)C)cc3C2)CC[C@H]1n1c(C2CC2)nc2cc(C)ccc21 [Example 73, N-{(R)-2-[(3R,4R)-4-(2-Cyclopropyl-5-methyl-benzoimidazol-1-yl)-3-methoxy-piperidin-1-ylmethyl]-indan-5-yl}-isobutyramide]",20 to 200
7,"Cc1ccc2c(c1)nc(-c1ccccc1)n2C1CCN(C[C@@H]2Cc3ccc(N)cc3C2)CC1 [Example 52, (R)-2-[4-(5-Methyl-2-phenyl-benzoimidazol-1-yl)-piperidin-1-ylmethyl]-indan-5-ylamine]",20 to 200
8,"COC(=O)Nc1ccc2c(c1)C[C@H](CN1CC[C@@H](n3c(C(C)C)nc4cc(C)ccc43)[C@H](OC)C1)C2 [Example 77, {(R)-2-[(3R,4R)-4-(2-Isopropyl-5-methyl-benzoimidazol-1-yl)-3-methoxy-piperidin-1-ylmethyl]-indan-5-yl}-carbamic acid methyl ester]",20 to 200
9,"CO[C@@H]1CN(C[C@H]2Cc3ccc(Br)cc3C2)CC[C@H]1n1c(C(C)C)nc2cc(C)ccc21 [Example 18, 1-[(3R,4R)-1-((S)-5-Bromo-indan-2-ylmethyl)-3-methoxy-piperidin-4-yl]-2-isopropyl-5-methyl-1H-benzoimidazole]",20 to 200
10,"Cc1ccc2c(c1)nc(C)n2C1CCN(C[C@H]2Cc3ccc(NC(=O)C(C)C)cc3C2)CC1 [Example 48, N-{(S)-2-[4-(2,5-Dimethyl-benzoimidazol-1-yl)-piperidin-1-ylmethyl]-indan-5-yl}-isobutyramide]",20 to 200
11,{(R)-2-[4-(2-tert-Butyl-5-methyl-benzoimidazol-1-yl)-piperidin-1-ylmethyl]-indan-5-yl}-methyl-amine [Example 56],200 to 5000
12,"CCC(=O)Nc1ccc2c(c1)C[C@H](CN1CC[C@@H](n3c(C(C)C)nc4cc(C)ccc43)[C@H](OC)C1)C2 [Example 45, N-{(R)-2-[(3R,4R)-4-(2-Isopropyl-5-methyl-benzoimidazol-1-yl)-3-methoxy-piperidin-1-ylmethyl]-indan-5-yl}-propionamide]",20 to 200
13,"CO[C@H]1CN(CC2Cc3ccccc3C2)CC[C@@H]1n1c(C)nc2cc(C)ccc21 [Example 81, 1-((3S,4S)-1-Indan-2-ylmethyl-3-methoxy-piperidin-4-yl)-2,5-dimethyl-1H-benzoimidazole]",200 to 5000
14,"Cc1ccc2c(c1)ncn2C1CCN(CC2Cc3ccc(NC(=O)C(C)C)cc3C2)CC1 (stereo not shown) [Example 78, N-{2-[4-(5-Methyl-benzoimidazol-1-yl)-piperidin-1-ylmethyl]-indan-5-yl}-isobutyramide]",20 to 200
15,"CC(=O)c1nc2cc(C)ccc2n1C1CCN(CC2Cc3ccccc3C2)CC1 [Example 82, 1-[1-(1-Indan-2-ylmethyl-piperidin-4-yl)-5-methyl-1H-benzoimidazol-2-yl]-ethanone]",200 to 5000
